# Measurements reported in patent US20050266060A1, “Transdermal delivery system for treatment of cognitive disorders” (priority 2004, published 2005).
# How the values were obtained:
# [1] = system: beta amyloid precursor protein; assay: production of beta amyloid precursor protein
# cholinesterase = assay: inhibition of cholinesterase activity; type: biochemical
# From the text: The phenserine compounds of the invention may be synthesized using processes known in the art. For example, U.S. Pat. Nos. 6,495,700, 5,409,948, 5,171,750, 5,378,723, and 5,998,460, and WO 03/082270 A1, all of which are hereby incorporated by reference in their entirety, describe the preparation of the phenserine compounds of the invention and enzyme inhibition assays that may be used to test compounds of the invention.
# [2] = skin irritancy and skin penetration of mixture with oleic acid; conditions: 50:50 mixture with oleic acid
# From the text: Ethyl oleate gives a better performance still and is optimal in combination with propionic acid.
# [3] = solubility of phenserine or its salt; type: physicochemical; conditions: propionic acid as co-solvent with isopropyl myristate and/or oleic acid
# Description: To assay solubility, between 10-20 mg of phenserine is weighed into a 1 ml volumetric flask. An initial 1 ml volume of a chosen vehicle is added to the flask and the mixture agitated, for example, ultrasonically for at least 30 minutes.
# [4] = chemical stability of phenserine in vehicles; type: physicochemical
# Description: The time-course profiles for phenserine penetration across human epidermis from the formulations of the invention are conducted. […] Therefore, breakdown and degradation products, for example, by hydrolysis and subsequent oxidation, are assayed in each vehicle. The vehicles of the invention, including propionic acid and/or oleic acid, are assayed for the chemical stability of a phenserine compound.
# [5] = clinical studies of oral phenserine compound; type: in vivo, human; conditions: oral dose of about 10 and/or 15 mg bid
# Description: Clinical studies indicate that an oral dose of a phenserine compound of about 10 and/or 15 mg bid may produce a beneficial treatment for cognitive disorders, such as AD. […] Therefore, the dosage of a phenserine compound may be reduced when administered transdermally.
# brain extracellular ACh = assay: striatal in vivo microdialysis in conscious, freely-moving rats
# Description: (§1) To determine the time-dependent effects of phenserine on cholinergic function, AChE activity, brain and plasma drug levels and brain extracellular ACh concentrations were measured in rats before and after phenserine administration.
# [6] = in vitro penetration across human epidermis in glass diffusion cells; type: in vitro ADME
# Description: Preparation of skin membranes: Human skin is obtained post mortem and may be stored at −20° C. until needed. When required the tissue is allowed to thaw at room temperature and the subcutaneous fat removed. Epidermal sheets are separated from full-thickness skin by immersing in water at 60° C. for 45 seconds and gently peeling away the epidermis. Alternatively, skin may be obtained from another source, such as a mouse or rat.
# Absorption studies are performed in vitro using glass diffusion cells, having epidermal membranes mounted in Franz type diffusion cells. For example, Franz type diffusion cells having a cross-sectional area of 2.54 cm^2. The cells may be housed in a water bath to maintain a desired temperature. The upper surface of the membrane is exposed to donor solution and the under surface of the membrane is bathed by continuously stirred receptor fluid. Receptor fluid may be a phosphate buffered saline solution, or any physiological solution.
# Membrane integrity may be assayed using methods well known in the art prior to conducting a diffusion assay. […]
# Results from absorption experiments are typically plotted as cumulative amount absorbed against time. The steady state penetration rate, or flux, J (μg/cm^2/hr), is typically calculated by linear regression analysis from the linear regions of an absorption plot. […]
# AChE = target: T1, AChE (Rattus norvegicus, UniProt P37136); assay: time-dependent AChE inhibition in rats after phenserine administration
# T1 sequence (P37136 32-614): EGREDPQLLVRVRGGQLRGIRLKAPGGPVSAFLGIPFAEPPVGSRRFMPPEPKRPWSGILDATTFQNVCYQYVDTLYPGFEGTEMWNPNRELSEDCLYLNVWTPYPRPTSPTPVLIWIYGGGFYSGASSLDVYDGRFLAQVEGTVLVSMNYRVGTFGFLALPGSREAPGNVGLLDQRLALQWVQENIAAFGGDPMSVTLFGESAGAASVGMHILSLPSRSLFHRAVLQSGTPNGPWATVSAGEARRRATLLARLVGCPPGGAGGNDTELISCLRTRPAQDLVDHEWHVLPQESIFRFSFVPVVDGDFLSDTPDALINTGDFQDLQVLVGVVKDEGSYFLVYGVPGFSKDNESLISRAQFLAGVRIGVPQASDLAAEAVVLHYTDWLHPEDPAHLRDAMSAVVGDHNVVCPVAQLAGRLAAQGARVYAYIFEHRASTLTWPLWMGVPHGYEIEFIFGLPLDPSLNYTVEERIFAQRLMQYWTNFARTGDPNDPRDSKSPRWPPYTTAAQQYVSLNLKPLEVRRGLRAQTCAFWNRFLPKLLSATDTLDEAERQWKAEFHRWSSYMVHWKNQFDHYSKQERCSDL
# Description: as §1
# [7] = brain and plasma drug levels in rats after phenserine i.v. dosing
# Description: as §1
SMILES,production of beta amyloid precursor protein [1],inhibition of cholinesterase activity (cholinesterase),penetration through the skin [2],skin irritancy [2],effect of co-solvent on solubility [3],effect of co-solvent on stability ([4]; propionic acid as co-solvent with isopropyl myristate and/or oleic acid),"chemical stability in vehicle ([4]; vehicles of the invention, such as propionic acid and/or oleic acid)",signs of cholinergic over stimulation [5],rise in brain ACh levels (brain extracellular ACh),transdermal flux rate ([6]; 25% in propionic acid/isopropyl myristate),transdermal flux rate ([6]; 25% in propionic acid/oleic acid),"bioavailability (AChE; rat, plasma, po)","half-life of AChE inhibition (AChE; rats, i.v. dosing)","inhibition of AChE (AChE; rats, i.v. dosing)","Kp ([7]; rat, brain / plasma, iv)","half-life ([7]; rat, brain, iv)","half-life ([7]; rat, plasma, iv)","time to peak drug level ([7]; rats, i.v. dosing)"
"CN1CC[C@]2(C)c3cc(OC(=O)Nc4ccccc4)ccc3N(C)C12 (stereo partly drawn) [POSIPHEN, (3aR)-1,3a,8-trimethyl-1,2,3,3a,8,8a-hexahydropyrrolo[2,3-b]indol-5-yl phenylcarbamate]",reduces the production of beta amyloid precursor protein,does not inhibit cholinesterase activity,,,,,,,,,,,,,,,,
CNC(=O)Oc1ccc2c(c1)[C@]1(C)CCN(C)[C@@H]1N2C [physostigmine],,,very efficient,non-irritant,,,,,,,,,,,,,,
"CN1CC[C@@]2(C)c3cc(OC(=O)Nc4ccccc4)ccc3N(C)C12 (single isomer, unassigned) [phenserine]",reduction in β-APP production,long-acting inhibitor of cholinesterase,,,increase,increase,chemically stable,does not cause overt signs of cholinergic over stimulation,> 3 fold,sufficiently high transdermal flux rates,sufficiently high transdermal flux rates,100%,> 495 min,> 70%,10,8.5 min,12.6 min,≤ 5 min
